Reference: ChEMBL document CHEMBL1201862, “PubChem BioAssay data set” (2004)
Calls of active or inactive are those of the source.

Assays:
[1] = viability loss in HEK293 cells – cell-based, luminescence, dry powder, set 12, cytotoxicity control, dose response (AID 743354); format: functional
[2] = BioA aminotransferase inhibition, coupled fluorescent readout – biochemical, coupled fluorescence displacement, 20-point, dry powder, dose response (AID 743357); format: functional
[3] = growth inhibition of PfATP4-mutant resistant parasites – NITD609-resistant line, SYBR Green, dry powder, dose response (AID 1159571); format: functional, cell-based;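 further: parasites synchronized at ring stage by sorbitol before testing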
[4] = growth inhibition of yeast DHODH-expressing 3D7 parasites – SYBR Green, dry powder samples, dose response (AID 1159570); format: functional, cell-based;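 further: parasite growth measured after 72 hours of compound exposure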
[5] = toxicity to human HepG2 hepatoma cells – cell-based, plate reader, dry powder samples, cytotoxicity control, dose response (AID 1159569); format: functional;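 further: inhibitor potency with signal falling toward the positive control level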
[6] = antimalarial activity against Dd2 parasites – SYBR Green fluorescence, erythrocytes, dry powder, set 2, dose response (AID 1159574); format: functional, cell-based
[7] = Dd2 malaria parasite growth inhibition potency – SYBR Green, dry powder samples, dose response (AID 1159566); format: functional, cell-based;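 further: potency for growth inhibition with lower SYBR green DNA signal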
[8] = P. falciparum Dd2 growth inhibitors, dose response, SYBR Green, cherry-picked samples (AID 1159567); format: functional, cell-based
[9] = tested on: Streptococcus sp. 'group A'; test: Streptococcus pyogenes SK(-)GAS viability under kanamycin – luminescence, BacTiterGlo, confirmation, counter-screen for streptokinase expression inhibitor project, dose response (AID 1900); format: functional, organism-based
[10] = cytotoxicity toward HCT116 cells – cell-based, CellTiter-Glo luminescence, IC50, dose response (AID 1117332); format: functional; conditions: HCT-116
[11] = SNU-C1 cell viability reduction, dose response, CellTiter-Glo luminescence (AID 1117323); format: functional, cell-based
SN12K1 = test: cells; format: functional; conditions: Homo sapiens
Streptococcus = test: GAS UMAA2166 growth inhibition – luminescence, BacTiterGlo, counter-screen for streptokinase expression inhibitor project, dose response (AID 1915); format: functional, organism-based;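 further: potency for reduction of bacterial viability or growth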
[12] = cytotoxicity toward HT-29 cells – cell-based, CellTiter-Glo luminescence, IC50, dose response (AID 1117330); format: functional
[13] = cytotoxicity toward Colo320 cells – cell-based, CellTiter-Glo luminescence, IC50, dose response (AID 1117334); format: functional; conditions: COLO 320
[14] = RKO cell viability reduction, dose response, CellTiter-Glo luminescence (AID 1117322); format: functional
P388 = test: cells; format: functional; conditions: Mus musculus
[15] = CellTiter-Glo luminescence survival assay, SW480 colon tumor line, concentration-response curve, half-maximal inhibitory concentration (AID 1117338); format: functional
BJ [16] = test: cells; format: functional, cell-based; conditions: Homo sapiens
BJ [17] = test: BJ-TERT-LT-ST fibroblast viability loss – cell-based, RAS-independent, luminescence, dose response (AID 1935); format: functional; conditions: Homo sapiens;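 further: BJ fibroblasts immortalized with TERT plus LT and ST oncogenes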
[18] = rise of 2N DNA cells, HeLa – IC50, dose response (AID 1117349); format: functional, cell-based
[19] = rise of 4N DNA cells, HeLa – IC50, dose response (AID 1117351); format: functional, cell-based
[20] = off-target signal loss in HeLa-CEM21 co-culture – HeLa F-luc CTL cells, cherry-picked, counter-screen for HIV-1 Env fusion inhibitor project, dose response (AID 652040); format: functional, cell-based;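 further: potency for signal decrease marking cytotoxic or nonspecific inhibition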
HEK293 = test: EBV LMP1 TES2 canonical NF-kB signalling blockers – cell-based, HEK293, luciferase, cherry-pick, dose response (AID 588343); format: functional; conditions: Homo sapiens
[21] = HCT116 cell viability decrease, GSK3B pretreatment – CellTiter-Glo, IC50, dose response (AID 1117339); format: functional; conditions: HCT-116
P388/ADR = test: cells; format: functional; conditions: Mus musculus
[22] = Reduced DLD-1 viability, concentration-response, CellTiter-Glo luminescence (AID 1117352); format: functional
[23] = DRD fibroblast viability loss – cell-based, non-viral oncogenic, luminescence, dose response (AID 1934); format: functional; conditions: Homo sapiens
BJ [24] = test: BJ-TERT fibroblast viability loss – cell-based, RAS-independent, luminescence, dose response (AID 1933); format: functional; conditions: Homo sapiens
[25] = biological target: T1, Methionyl-tRNA synthetase, putative (Trypanosoma brucei brucei, UniProt Q38C91); format: functional, Trypanosoma brucei brucei strain 927/4 GUTat10.1
T1 sequence (Q38C91 whole entry): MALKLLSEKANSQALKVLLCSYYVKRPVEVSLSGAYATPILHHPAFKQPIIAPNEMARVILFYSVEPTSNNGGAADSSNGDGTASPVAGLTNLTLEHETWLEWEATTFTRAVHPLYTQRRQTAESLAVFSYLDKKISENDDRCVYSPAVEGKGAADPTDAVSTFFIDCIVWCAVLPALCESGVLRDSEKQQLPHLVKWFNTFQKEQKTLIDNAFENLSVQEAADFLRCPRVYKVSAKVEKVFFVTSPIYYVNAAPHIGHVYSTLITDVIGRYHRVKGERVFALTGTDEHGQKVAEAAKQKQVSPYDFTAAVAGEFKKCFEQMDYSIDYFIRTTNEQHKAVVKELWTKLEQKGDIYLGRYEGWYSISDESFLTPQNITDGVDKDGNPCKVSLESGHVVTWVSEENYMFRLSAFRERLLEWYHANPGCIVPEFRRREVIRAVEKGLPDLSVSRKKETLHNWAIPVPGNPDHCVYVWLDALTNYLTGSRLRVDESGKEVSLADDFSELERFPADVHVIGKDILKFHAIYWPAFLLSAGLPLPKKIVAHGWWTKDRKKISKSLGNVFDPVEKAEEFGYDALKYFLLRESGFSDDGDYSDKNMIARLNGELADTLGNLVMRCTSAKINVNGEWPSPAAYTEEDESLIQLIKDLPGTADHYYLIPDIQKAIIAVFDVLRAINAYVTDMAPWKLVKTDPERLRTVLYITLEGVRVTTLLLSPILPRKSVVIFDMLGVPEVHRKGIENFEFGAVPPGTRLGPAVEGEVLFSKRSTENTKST

[26] = biological target: T1, Methionyl-tRNA synthetase, putative; format: functional, Trypanosoma brucei brucei strain 927/4 GUTat10.1; remark: listed apart in the source
[27] = Late stage counterscreen for inhibitors of Trypanosoma brucei methionyl tRNA synthetase (MetRS): Luminescence-based cell-based high throughput dose response assay to identify compounds that are cytotoxic to Jurkat human T lymphocyte cells.; format: functional
[28] = Counterscreen for inhibitors of Trypanosoma brucei methionyl tRNA synthetase (MetRS): Luminescence-based cell-based high throughput dose response assay to identify compounds that are cytotoxic to Jurkat human T lymphocyte cells.; format: functional
[29] = COV434 cell viability loss – plate reader, dry powder, SA7, cytotoxicity control for PAX8 inhibitor project, dose response (AID 743145); format: functional, cell-based
[30] = IGROV1 cell killing – plate reader, dry powder samples, PAX8 inhibitor project, dose response (AID 743043); format: functional, cell-based; conditions: IGROV-1
[31] = OVCAR4 cell viability loss – plate reader, dry powder, SA11, cytotoxicity control for PAX8 inhibitor project, dose response (AID 743150); format: functional, cell-based; conditions: OVCAR-4
[32] = PAX8-dependent cell viability loss – plate reader, dry powder, dose response (AID 743049); format: functional, cell-based
[33] = inhibitors acting on PAX2 in cells – cell-based, plate reader, dry powder samples, selectivity assay for PAX8 inhibitor project, dose response (AID 743048); format: functional;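 further: HEK293 cells carrying a WT1 promoter luciferase reporter driven by expressed Pax2; potency is for inhibition of Pax2 driven reporter signal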
Paired box protein Pax-8 = Paired box protein Pax-8 (Homo sapiens, UniProt Q06710); test: PAX8 transcriptional activity inhibition in RMG-I – RMG-I cells, luciferase, cherry-pick, dose response (AID 687027); format: functional, cell-based;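 further: luciferase reporter driven by Pax8 target thyroperoxidase promoter measured by SteadyGlo luminescence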
[34] = fluconazole-exposed Candida albicans growth modulators – fluorescence, retest, confirmation (AID 2467); format: functional, cell-based
[35] = NIH-3T3 fibroblast cytotoxicity, dose response, cytotoxicity control, cell-based, fluorescence, Alamar Blue, secondary assay (AID 2327); format: functional;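 further: NIH-3T3 mouse fibroblasts cultured with fluconazole at 8 µg/mL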
[36] = OV-90 cell viability loss – plate reader, dry powder, SA8, PAX8 inhibitor project, dose response (AID 743149); format: functional, cell-based
[37] = OVCAR-3 cell viability loss – plate reader, dry powder samples, PAX8 inhibitor project, dose response (AID 743044); format: functional, cell-based
[38] = reduced cellular PGC1a acetyl-lysine signal – cell-based, cherry-picked samples, dose response (AID 720514); format: functional;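 further: potency may reflect raised or lowered acetylation signal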
[39] = biological target: T2, G-protein coupled receptor 183 (Homo sapiens, UniProt P32249); test: Dose-response confirmation of small molecule antagonists of the EBI2 receptor via a luminescent beta-arrestin assay.; format: functional
[40] = biological target: T2, G-protein coupled receptor 183; test: SAR confirmation of small molecule antagonists of the EBI2 receptor via a luminescent beta-arrestin assa.; format: functional
Beta-galactosidase = Beta-galactosidase (Escherichia coli, UniProt Q8VNN2); test: Dose response counterscreen for EBI2 assay utilizing the enzyme, b-galactosidase.; format: functional
Fibrinogen beta chain [41] = biological target: T3, Fibrinogen beta chain (Homo sapiens, UniProt P02675); test: Fluorescence polarization-based biochemical high throughput dose response assay to identify inhibitors that disrupt the binding of a cyclic peptide (Tn7) to the fibrin proteolytic product D-Dimer and fragment E complex [DD(E )].
Fibrinogen beta chain [42] = biological target: T3, Fibrinogen beta chain; test: Fluorescence polarization-based biochemical high throughput dose response assay to identify inhibitors that disrupt the binding of a cyclic peptide (Tn6) to the fibrin proteolytic product D-Dimer and fragment E complex [DD(E )].
Troponin, cardiac muscle = Troponin, cardiac muscle (Homo sapiens, UniProt P19429+P45379+P63316); test: Fluorescence-based biochemical high throughput dose response assay for activators of the calcium sensitivity of cardiac Regulated Thin Filaments (RTF). [Related pubchem assays (depositor defined):AID493008, AID493018, AID504382, AID504383]; format: protein-complex assay

T2 sequence (P32249 whole entry): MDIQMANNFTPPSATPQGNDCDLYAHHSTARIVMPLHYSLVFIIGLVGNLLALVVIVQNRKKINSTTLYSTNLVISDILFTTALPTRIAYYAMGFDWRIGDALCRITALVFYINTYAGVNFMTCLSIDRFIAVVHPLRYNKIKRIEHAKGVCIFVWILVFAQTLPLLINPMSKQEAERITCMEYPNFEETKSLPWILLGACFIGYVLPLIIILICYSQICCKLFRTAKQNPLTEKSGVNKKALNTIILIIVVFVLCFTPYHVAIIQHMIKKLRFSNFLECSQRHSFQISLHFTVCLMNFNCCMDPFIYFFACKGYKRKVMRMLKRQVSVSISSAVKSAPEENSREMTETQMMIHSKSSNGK
T3 sequence (P02675 whole entry, the tested form may be a part): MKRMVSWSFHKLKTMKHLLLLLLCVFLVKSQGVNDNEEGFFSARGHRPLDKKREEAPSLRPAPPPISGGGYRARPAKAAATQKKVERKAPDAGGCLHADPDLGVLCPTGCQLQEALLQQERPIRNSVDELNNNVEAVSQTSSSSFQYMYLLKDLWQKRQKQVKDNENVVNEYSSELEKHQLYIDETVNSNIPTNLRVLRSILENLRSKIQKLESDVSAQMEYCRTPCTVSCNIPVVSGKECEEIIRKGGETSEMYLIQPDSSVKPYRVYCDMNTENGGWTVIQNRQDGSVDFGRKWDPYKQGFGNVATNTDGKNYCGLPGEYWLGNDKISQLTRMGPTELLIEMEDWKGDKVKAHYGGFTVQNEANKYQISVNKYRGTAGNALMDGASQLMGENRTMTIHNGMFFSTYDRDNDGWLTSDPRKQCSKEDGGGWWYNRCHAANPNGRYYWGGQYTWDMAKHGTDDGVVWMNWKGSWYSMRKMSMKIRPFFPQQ
Sequence of Beta-galactosidase (Q8VNN2 whole entry, the tested form may be a part): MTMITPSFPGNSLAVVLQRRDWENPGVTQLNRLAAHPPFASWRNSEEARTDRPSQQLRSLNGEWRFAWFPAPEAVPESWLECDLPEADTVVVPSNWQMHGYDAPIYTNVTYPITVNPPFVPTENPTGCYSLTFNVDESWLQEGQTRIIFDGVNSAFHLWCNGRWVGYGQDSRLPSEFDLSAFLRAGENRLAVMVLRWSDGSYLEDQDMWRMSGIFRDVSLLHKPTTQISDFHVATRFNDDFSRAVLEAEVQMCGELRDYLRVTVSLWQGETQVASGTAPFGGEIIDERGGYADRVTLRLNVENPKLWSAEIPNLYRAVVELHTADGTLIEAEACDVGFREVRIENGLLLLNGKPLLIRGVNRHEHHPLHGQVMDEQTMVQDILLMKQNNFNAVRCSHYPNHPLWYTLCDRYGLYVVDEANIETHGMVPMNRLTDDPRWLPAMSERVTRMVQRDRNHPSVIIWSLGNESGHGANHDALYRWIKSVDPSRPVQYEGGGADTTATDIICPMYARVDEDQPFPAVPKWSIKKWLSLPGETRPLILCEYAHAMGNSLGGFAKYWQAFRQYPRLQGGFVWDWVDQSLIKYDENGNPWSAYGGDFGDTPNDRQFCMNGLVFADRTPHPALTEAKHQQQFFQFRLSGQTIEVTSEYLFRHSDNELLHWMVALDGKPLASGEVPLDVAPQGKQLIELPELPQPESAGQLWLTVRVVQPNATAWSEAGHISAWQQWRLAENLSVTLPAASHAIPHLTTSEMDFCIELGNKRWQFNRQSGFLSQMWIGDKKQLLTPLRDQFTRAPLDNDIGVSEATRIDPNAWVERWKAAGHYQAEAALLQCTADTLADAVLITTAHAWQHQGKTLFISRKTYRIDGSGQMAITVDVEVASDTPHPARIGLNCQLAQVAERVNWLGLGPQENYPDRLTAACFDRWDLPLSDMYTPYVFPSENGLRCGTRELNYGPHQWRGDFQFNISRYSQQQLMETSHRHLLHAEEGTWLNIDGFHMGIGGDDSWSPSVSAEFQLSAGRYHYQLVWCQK
Sequence of Paired box protein Pax-8 (Q06710 whole entry): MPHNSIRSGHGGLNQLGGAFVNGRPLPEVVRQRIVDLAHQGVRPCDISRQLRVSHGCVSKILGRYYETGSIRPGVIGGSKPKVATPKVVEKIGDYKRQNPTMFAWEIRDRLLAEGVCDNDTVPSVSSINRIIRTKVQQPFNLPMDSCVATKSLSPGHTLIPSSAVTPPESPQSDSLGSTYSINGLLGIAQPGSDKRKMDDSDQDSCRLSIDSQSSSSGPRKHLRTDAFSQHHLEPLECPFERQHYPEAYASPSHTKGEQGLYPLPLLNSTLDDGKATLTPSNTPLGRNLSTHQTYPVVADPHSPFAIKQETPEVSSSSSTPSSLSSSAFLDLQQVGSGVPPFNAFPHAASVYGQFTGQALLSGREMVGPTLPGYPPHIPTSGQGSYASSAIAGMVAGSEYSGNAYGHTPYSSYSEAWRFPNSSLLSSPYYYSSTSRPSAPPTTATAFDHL

For `CN1c2ccc(-c3cccc(F)c3)cc2[C@H]2[C@H](CCN2C(=O)CCCCCCN)[C@H]1CO`, the AC50 [1] was > 52 µM (inactive) and the AC50 [2] was 13 µM (active).

In the case of `COc1ccc(NC(=O)N2CCCCN3[C@H](CO)[C@H](c4ccc(C#Cc5ccccc5)cc4)[C@@H]3C2)cc1`, the AC50 [3] is reported as 0.00309 µM (active), the AC50 [4] is reported as 0.00346 µM (active) and the AC50 [5] is reported as 85.1 µM (active). For the same compound, the AC50 [6] was 0.00652 µM (active), the AC50 [7] was 0.00384 µM (active) and the AC50 [8] was < 0.3 µM (active).

With `O=c1[nH]c(=O)n([C@H]2C[C@H](O)[C@@H](CO)O2)cc1F` [FLOXURIDINE] the EC50 [9] was 0.916 µM (active), the IC50 [10] was 0.001 µM (active) and the IC50 [11] was > 20 µM (inactive). For the same compound, the GI50 (SN12K1) was 0.34 µM (active), the EC50 (Streptococcus) was 1.34 µM (active) and the IC50 [12] was > 20 µM (inactive). The IC50 [13] was > 20 µM (inactive), the IC50 [14] was 0.001 µM (active) and the GI50 (P388) was 0.25 µM (active). The IC50 [15] was > 20 µM (inactive), the EC50 (BJ [16]) was 0.596 µM (active) and the EC50 (BJ [17]) was > 150 µM (inconclusive). The IC50 [18] was > 10 µM (inactive), the IC50 [19] was > 10 µM (inactive) and the AC50 [20] was > 70 µM (inactive). The AC50 (HEK293) was 0.0619 µM (active), the IC50 [21] was 0.001 µM (active) and the GI50 (P388/ADR) was 0.25 µM (active). The IC50 [22] was 0.001 µM (active), the EC50 [23] was > 150 µM (not active) and the EC50 (BJ [24]) was 57 µM (active).

With `O=C(NCc1nc2ccccc2[nH]1)C1=C[C@@H](c2ccc(Br)cc2)C[C@@H](OCCCCO)O1` the IC50 [25] was 0.551 µM (active), the IC50 [26] was 0.27 µM (active) and the IC50 [27] was 48.4 µM (inactive). The IC50 [28] was 83.3 µM (inactive).

With `CC(C)(C)c1nnc(NC(=O)CCS(=O)(=O)c2ccccc2)s1` the AC50 [29] was > 100 µM (inactive), the AC50 [30] was 50.7 µM (active) and the AC50 [31] was 4.22 µM (active). The AC50 [32] was 25 µM (active), the AC50 [33] was > 52 µM (inactive) and the AC50 (Paired box protein Pax-8) was 4.6 µM (active). The EC50 [34] was 1.09 µM (active), the EC50 [35] was > 150 µM (inactive) and the AC50 [36] was > 100 µM (inactive). The AC50 [37] was 48.2 µM (active).

For `CC(=O)Nc1ccc2c(CSc3nncs3)cc(=O)oc2c1`, the AC50 [38] was 26.5 µM (active).

In the case of `O=C(/C=C/c1ccc(F)cc1)N1CCN(S(=O)(=O)/C=C/c2ccccc2)CC1`, the IC50 [39] is reported as 0.00675 µM (active), the IC50 [40] is reported as 0.00359 µM (active) and the IC50 (Beta-galactosidase) is reported as > 80 µM (inactive).

With `[O-][n+]1c2c([n+]([O-])c3cc(N4CCCC4)c(F)cc31)CCC2` the IC50 (Fibrinogen beta chain [41]) was > 83.3 µM (inactive), the IC50 (Fibrinogen beta chain [42]) was 26.1 µM (inactive) and the EC50 (Troponin, cardiac muscle) was > 2.65 µM (active).
